What was measured:
Acute Toxicity Test = format: in vivo; settings: Crj:CD1 male mice, tail vein, observed for 7 days
[1] = target: T1, Tg mouse intracerebral amyloid plaque (Homo sapiens, UniProt P05067); assay: Investigation of transgenic (Tg) mice with amyloid deposition in their brain (fluorescence microscopy of brain sections after intravenous administration); format: in vivo; settings: Tg2576 mouse, 4 mg/kg intravenous; for Passage through the blood-brain barrier and binding to Tg mouse intracerebral amyloid plaque: 1 hour after administration
T1 construct: from tissue; host or cells: brain of Tg mice (Tg2576 or APPswe2576/Tau JNPL3) after intravenous dosing

[2] = system: histidine-requiring Salmonella typhimurium TA100 and TA98 strains; assay: Mutagenicity Test (reverse mutation test); format: cell-based; settings: for Relative Activity in the presence of S9Mix / Relative Activity in the absence of S9Mix: reverse mutation test; as to Relative Activity in the presence of S9Mix: key: minus: The number of colonies after reverse mutation did not increase at least two times that of the negative control
Method in brief: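 Preincubation reverse-mutation test in S. typhimurium TA100 and TA98, with and without S9mix, 20 min at 37° C, then 48 h at 37° C on minimal glucose agar. Six doses (common ratio 2) in DMSO, top dose 5000 μg/plate or growth-inhibiting dose. Revertant colonies counted; positive at ≥2-fold over DMSO control with dose dependency or reproducibility.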

[3] = Brain Permeability Test Through HPLC; format: in vivo; settings: mice, 2 minutes after intravenous administration
Experimental: A compound of the invention was intravenously administered to mice, and tested for its in-vivo brain permeability in the mice.
(1) Slc:ICR mice (by Nippon SLC) (body weight, 30 to 40 g; n=3) were used.
(2) A test compound was dissolved in a mixture of 5% Tween 80-5% ethyl alcohol-5% 1 N HCl-physiological saline water, and injected into the test mouse via its tail vein. Two minutes after the administration, the blood was collected from the test mouse under ether anesthesia via its abdominal aorta using a heparin-steeped syringe, and the brain material was collected from it.
(3) After collected, the blood was centrifuged at 4° C. and 14,000 rpm for 10 minutes, and the supernatant was stored at −80° C. as plasma. After collected, the brain material (including the cerebellum) was stored at −80° C.
(4) 0.3 ml of acetonitrile was added to 0.1 ml of the plasma, then vortexed, and centrifuged at 4° C. and under 10,000 G for 5 minutes. After centrifuged, 0.2 ml of the resulting supernatant was transferred into Mini-Uniprep (Whatman), then 0.2 ml of 20 mM phosphate buffer was added to it and filtered. 0.2 ml of the resulting filtrate was analyzed through HPLC (Shiseido Nanospace SI-2; pump, 3001; UV-VIS detector, 3002; column thermostat, 3004; fluorescence detector, 3013).
(5) 2 ml of methanol was added to the brain, homogenized, and centrifuged at 4° C. and 3000 or 4000 rpm for 10 minutes. After centrifuged, 500 μl of the resulting supernatant was diluted 10-fold with 20 mM phosphate buffer. (i) 2 to 3 ml of acetonitrile, (ii) 2 to 5 ml of methanol and (iii) 4 to 6 ml of ultra-pure water were led through a cartridge for solid-phase extraction (J. T. Baker Speedisk) in that order, and the 10-fold diluted supernatant solution was led through it. Via an empty syringe, air was applied to the cartridge for solid-phase extraction, two or three times to remove water, and then this was eluted with about 500 μl of acetonitrile or methanol, and the eluate was diluted 2-fold with 20 mM phosphate buffer. 0.2 ml of the resulting solution was analyzed through HPLC.
(6) The test compound content in the plasma and in the brain was determined relative to the dose of the compound (% ID (injected dose)/g or ml).

[4] = irrespective of the absence or presence of S9mix

T1 sequence (P05067 672-713 limits assumed): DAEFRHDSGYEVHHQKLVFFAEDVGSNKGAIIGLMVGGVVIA

| SMILES | Maximum Permissible Dose (mg/kg, intravenous administration) (Acute Toxicity Test) | Passage through the blood-brain barrier and binding to Tg mouse intracerebral amyloid plaque [1] | Correspondence of the binding site to the anti-Aβ antibody-stained site of the same section ([1]; antibody 4G8) | Relative activity (mutagenicity) [2, 4] | Relative Activity in the presence of S9Mix [2] | Relative Activity in the absence of S9Mix [2] | Brain Permeability: Brain [3] | Brain Permeability: Plasma [3] | Relative activity (mutagenicity) ([2]; in the presence of S9mix) |
| --- | --- | --- | --- | --- | --- | --- | --- | --- | --- |
| OCC(CF)Oc1ccc2nc(/C=C/c3cnc(N4CCOCC4)s3)oc2c1 (centres unmarked) [THK-702, (E)-2-[2-(2-morpholinothiazol-5-yl)ethenyl]-6-[(1-fluoromethyl-2-hydroxy)ethoxy]-benzoxazole] | ≧10 mg/kg | passed through the blood-brain barrier, and bound to the amyloid plaque of the Tg mouse | completely corresponded to the anti-Aβ antibody-stained site | minus | minus | minus | 5.1 % ID/g or ml | 2.7 % ID/g or ml | – |
| CNc1ncc(/C=C/c2nc3ccc(OC(CO)CF)cc3o2)s1 (centres unmarked) [THK-761, (E)-6-[(1-fluoromethyl-2-hydroxy)ethoxy]-2-[2-[2-methylaminothiazol-5-yl]ethenyl]-benzoxazole] | ≧10 mg/kg | – | – | – | minus | 11995 | – | – | weak |
| CN(C)c1ncc(/C=C/c2nc3ccc(OC(CO)CF)cc3o2)s1 (centres unmarked) [THK-763, (E)-6-[(1-fluoromethyl-2-hydroxy)ethoxy]-2-[2-[2-dimethylamino-thiazol-5-yl]ethenyl]benzoxazole] | ≧10 mg/kg | – | – | – | minus | 3058 | – | – | weak |
| FCCOc1ccc2nc(/C=C/c3cnc(N4CCOCC4)s3)oc2c1 [THK-525, 6-(2-fluoro-ethoxy)-2-[2-(2-morpholin-4-yl-thiazol-5-yl)-vinyl]-benzoxazole] | ≧10 mg/kg | passed through the blood-brain barrier, and bound to the Tg mouse intracerebral amyloid plaque | – | minus | minus | minus | 7.9 % ID/g or ml | 3.1 % ID/g or ml | – |
| OCC(CF)Oc1ccc2nc(/C=C/c3cnc(N4CCCC4)s3)oc2c1 (centres unmarked) [THK-752, (E)-6-[(1-fluoromethyl-2-hydroxy)ethoxy]-2-[2-[2-(pyrrolidin-1-yl)-thiazol-5-yl]ethenyl]benzoxazole] | ≧10 mg/kg | – | – | minus | minus | minus | 6.7 % ID/g or ml | 1.9 % ID/g or ml | – |

Reference: patent US7910579B2, “Benzoxazole derivatives” (Tohoku University, priority 2006, dated 2011)
